# Data from patent publication EP1191024A1, “Thiadiazines and their use as inhibitors of metalloproteinases” (Tschesche, Harald, priority 2000, dated 2002).
# Counter-ions that a name gives are not always drawn. Like-named read-outs stand apart in the source and are kept apart here.
# Tests used:
# Assay in all cases: MMP microfluorometric profiling assay (fluorogenic Mca-peptide substrate)
# Assay type in all cases: biochemical
# cdMMP-12 = biological target: T1, cdMMP-12 (Homo sapiens, UniProt P39900)
# T1 construct: The catalytic domain of MMP-12 was expressed in E. coli; made in house; host or cells: E. coli
# T1 sequence (P39900 106-263 limits assumed): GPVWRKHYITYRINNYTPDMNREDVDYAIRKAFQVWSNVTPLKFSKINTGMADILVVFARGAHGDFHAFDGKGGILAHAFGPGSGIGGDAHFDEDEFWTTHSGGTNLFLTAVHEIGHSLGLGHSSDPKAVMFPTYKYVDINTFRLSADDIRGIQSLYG
# Protocol: (§1) The tested MMP enzymes were prepared more specifically in the laboratories of the applicants, with the exception of MMP-1. MMP-1 from human rheumatoid synovial fibroblasts was purchased from Calbiochem-Novabiochem Corporation, LaJolla. Preparation of the recombinant catalytic domain of human Gelatinase A (cdMMP-2): The catalytic domain of Pro-Gelatinase A was prepared using an E. coli expression system according to the method described by Kröger et al^[19]. The proenzyme was activated with 0.5 mM APMA at 37°C prior to use in the assay. Preparation of the recombinant catalytic domain of human neutrophile Collagenase (cdMMP-8^Met80): The enzyme was expressed in E. coli as an active variant by the method of Kleine et al^[20]. Preparation of PMNL-Gelatinase (MMP-9): Latent PMNL-pro-Gelatinase was prepared from human plasma buffy coat as described by Tschesche et al^[21]. PMNL-pro-Gelatinase was activated prior to use by incubation with Trypsin at 37°C for 10 min. Inactivation of Trypsin was accomplished with TKI. Preparation of the recombinant catalytic domain of human Macrophage Elastase (cdMMP-12): The catalytic domain of MMP-12 was expressed in E. coli. The overexpressed protein was isolated as inclusion bodies and the renatured protein was purified by affinity chromatography with a hydroxamate inhibitor coupled column as described^[22]. Preparation of the recombinant catalytic domain of human Collagenase-3 (cdMMP-13): Human pro-cdMMP-13 was prepared using an E. coli expression system according to the method described^[23]. The isolated pro-cdMMP-13 was activated prior to use by incubation with 5 mM HgCl2 for 2 h at 37°C. Preparation of the recombinant catalytic domain of Membrane-Type-1 MMP (cdMMP-14): The catalytic domain of MMP-14 was expressed in E. coli and was activated by autocatalysis^[24]. Preparation of the recombinant human ectodomain of Membrane-Type-1 MMP (ΔTM-MMP-14): The ectodomain of MMP-14 was expressed in Pichia Pastoris by the method of Roderfeld et al. and activated by yeast proteases (Furin-like-proteases) during maturation^[25].
# (§2) The enzymatic activity was measured using a modified version of a resonance energy transfer fluorogenic assay as described^[26]. Progress curves were monitored by following the increase in fluorescence at 393 nm (λex = 328 nm), induced by the cleavage of the (7-methoxycoumarin-4-yl)acetyl-Pro-Leu-Gly-Leu-(3-[2,4-dinitro-phenyl]-L-2,3-diamino-propionyl)-Ala-Arg-NH2 (Mca-Pro-Leu-Gly-Leu-Dpa-Ala-Arg-NH2) fluorogenic substrate by MMPs. The fluorescent MCA-group is quenched by resonance energy transfer to the 2,4-dinitrophenyl group. Matrix metalloproteinases cleave this substrate at the Gly-Leu bond. Cleavage results in the loss of energy transfer and a large increase in fluorescence of the MCA group. This substrate is commercially available from Bachem, Switzerland.
# (§3) Enzyme inhibition assays were carried out in MRB which consisted of 50 mM HEPES/NaOH, pH 7.0, 10 mM CaCl2 and 0,02% (w/v) PEG 8000 at 25°C. MMP microfluorometric profiling assay was done in white U-bottomed 96-well plates (Microfluor 1 White, Dynex, USA) with a final substrate concentration of 6 µM MCA-peptide, approximately 0.3 to 5 nM MMP with variable inhibitor concentrations and 2% DMSO vehicle. From a 1.5 mM stock (100% DMSO) the inhibitors were serially diluted with MRB to 15, 10, 5, 3, 1, 0.6, 0.3, 0.1, 0.05, 0.01 and 0.005 µM final assay concentration. Column 1, rows A through H, contained only DMSO for the "enzyme-only" wells in the assay. After preincubation for 30 min at 25°C the reaction was started by addition of substrate and the plate was read on a SpectraFluor Plus (Tecan, Germany) plate reader with excitation at 330 nm and emission at 405 nm with the gain set to 150. Each measurement was done in triplicate to ensure statistically significant results. […]
# MMP-1 = biological target: T2, MMP-1 (Homo sapiens, UniProt P03956)
# T2 construct: MMP-1 from human rheumatoid synovial fibroblasts was purchased; purchased Calbiochem-Novabiochem Corporation, LaJolla; host or cells: human rheumatoid synovial fibroblasts
# T2 sequence (P03956 100-469): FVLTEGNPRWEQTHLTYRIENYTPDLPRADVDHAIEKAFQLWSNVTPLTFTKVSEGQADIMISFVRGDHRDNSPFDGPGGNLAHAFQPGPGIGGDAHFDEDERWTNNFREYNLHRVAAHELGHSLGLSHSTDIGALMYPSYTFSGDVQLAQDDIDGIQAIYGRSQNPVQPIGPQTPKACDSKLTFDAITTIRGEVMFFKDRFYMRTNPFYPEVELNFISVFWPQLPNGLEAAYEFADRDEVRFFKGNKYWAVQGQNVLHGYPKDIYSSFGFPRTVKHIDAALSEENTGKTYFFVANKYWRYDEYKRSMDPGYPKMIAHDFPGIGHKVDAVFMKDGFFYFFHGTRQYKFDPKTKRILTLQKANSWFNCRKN
# Protocol: as §1, §2, §3
# cdMMP-13 = cdMMP-13 (Homo sapiens, UniProt P45452); settings: for percent inhibition: cdMMP-13, @ 15 (µM)
# Protocol: as §1, §2, §3
# MMP-9 = biological target: T3, MMP-9 (Homo sapiens, UniProt P14780); settings: for percent inhibition: MMP-9, @ 15 (µM)
# T3 construct: from tissue; host or cells: human plasma buffy coat (PMNL)
# T3 sequence (P14780 107-707 limits assumed): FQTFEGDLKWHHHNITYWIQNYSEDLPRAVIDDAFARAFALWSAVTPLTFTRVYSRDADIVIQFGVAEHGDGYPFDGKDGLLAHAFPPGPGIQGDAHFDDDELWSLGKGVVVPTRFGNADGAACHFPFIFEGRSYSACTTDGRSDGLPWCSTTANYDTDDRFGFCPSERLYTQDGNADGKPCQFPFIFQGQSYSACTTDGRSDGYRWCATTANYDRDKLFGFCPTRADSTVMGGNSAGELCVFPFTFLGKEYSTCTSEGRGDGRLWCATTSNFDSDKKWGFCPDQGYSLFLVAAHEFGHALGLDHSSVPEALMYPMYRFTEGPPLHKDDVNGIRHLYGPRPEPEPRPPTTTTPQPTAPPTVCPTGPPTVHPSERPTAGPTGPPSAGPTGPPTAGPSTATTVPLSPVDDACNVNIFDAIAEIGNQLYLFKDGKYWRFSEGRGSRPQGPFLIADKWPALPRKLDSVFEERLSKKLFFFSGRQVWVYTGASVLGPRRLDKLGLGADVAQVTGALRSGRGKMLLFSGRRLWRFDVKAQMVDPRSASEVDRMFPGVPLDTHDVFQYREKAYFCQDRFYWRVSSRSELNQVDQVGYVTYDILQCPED
# Protocol: as §1, §2, §3
# cdMMP-14 = biological target: T4, cdMMP-14 (Homo sapiens, UniProt P50281)
# T4 construct: made in house; host or cells: E. coli
# Protocol: as §1, §2, §3
Compound,IC50 (cdMMP-12) [nM],IC50 (MMP-1) [nM],IC50 (cdMMP-13; read-out: cdMMP-13 IC50) [nM],IC50 (MMP-9) [nM],IC50 (cdMMP-14) [nM],percent inhibition (MMP-9) [%^a)@ 15],percent inhibition (cdMMP-13) [%^a)@ 15],"percent inhibition (cdMMP-14; cdMMP-14, @ 15 (µM)) [%^a)@ 15]",IC50 (cdMMP-13) [nM]
"C[C@@H](NS(=O)(=O)c1ccccc1)C(=O)NC1=NN=C(c2ccc(C#N)cc2)CS1 [Example 1, (2R)-N-[5-(4-Cyanophenyl)-6H-1,3,4-thiadiazine-2-yl]-2-[(phenylsulfonyl)amino]-propanamide]",444,451,368,232,346,,,,
"CC(C)[C@@H](NS(=O)(=O)c1ccccc1)C(=O)NC1=NN=C(c2ccc(Cl)cc2)CS1 [Example 2, (2R)-N-[5-(4-Chlorophenyl)-6H-1,3,4-thiadiazin-2-yl]-3-methyl-2-[(phenylsulfonyl)amino]butanamide]",426,629,> 15000,,1110,40,,,
"C[C@H](NS(=O)(=O)c1ccccc1)C(=O)NC1=NN=C(c2ccc(C#N)cc2)CS1 [Example 3, (2S)-N-[5-(4-Cyanophenyl)-6H-1,3,4-thiadiazin-2-yl]-2-[(phenylsulfonyl)amino]-propanamide]",447,449,387,329,459,,,,
"C[C@H](NS(=O)(=O)c1ccccc1)C(=O)NC1=NN=C(c2ccc(C(F)(F)F)cc2)CS1 [Example 4, (2S)-2-[(Phenylsulfonyl)amino]-N-{5-[4-(trifluormethyl)phenyl]-6H-1,3,4-thiadiazin-2-yl}propanamide]",367,490,,1040,1100,,,,1030
"C[C@H](NS(=O)(=O)c1ccccc1)C(=O)NC1=NN=C(c2ccc(Br)cc2)CS1 [Example 6, (2S)-N-[5-(4-Bromophenyl)-6H-1,3,4-thiadiazin-2-yl]-2-[(phenylsulfonyl)amino]-propanamide]",533,,,686,637,,,,658
"COc1ccc(S(=O)(=O)NCC(=O)NC2=NN=C(c3c(F)c(F)c(F)c(F)c3F)CS2)cc1 [Example 16, 2-{[(4-Methoxyphenyl)sulfonyl]amino}-N-[5-(2,3,4,5,6-pentafluorophenyl)-6H-1,3,4-thiadiazin-2-yl]acetamide]",920,,1090,2570,1760,,,,
"COc1ccc(S(=O)(=O)N[C@@H](C)C(=O)NC2=NN=C(c3ccc(C)cc3)CS2)cc1 [Example 17, (2S)-2-{[(4-Methoxyphenyl)sulfonyl]amino}-N-[5-(4-methylphenyl)-6H-1,3,4-thiadiazin-2-yl]propanamide]",436,,1110,689,707,,,,
"CC(C)[C@H](NS(=O)(=O)c1ccccc1)C(=O)NC1=NN=C(c2ccc(Cl)cc2)CS1 [Example 22, (2S)-N-[5-(4-Chlorophenyl)-6H-1,3,4-thiadiazin-2-yl]-3-methyl-2-[(phenylsulfonyl)amino]butanamide]",463,,> 15000,851,1400,,,,
"C=CCNC1=NN=C(c2ccc(Cl)cc2)CS1 [Example 31, N-Allyl-5-(4-chlorophenyl)-6H-1,3,4-thiadiazin-2-amine hydrobromide]",> 15000,,,783,2700,,,,> 15000

# More lines, in order of falling IC50 (cdMMP-12), values ahead:
IC50 (cdMMP-12) [nM],IC50 (MMP-1) [nM],IC50 (cdMMP-13; read-out: cdMMP-13 IC50) [nM],IC50 (MMP-9) [nM],IC50 (cdMMP-14) [nM],percent inhibition (MMP-9) [%^a)@ 15],percent inhibition (cdMMP-13) [%^a)@ 15],"percent inhibition (cdMMP-14; cdMMP-14, @ 15 (µM)) [%^a)@ 15]",Compound,IC50 (cdMMP-13) [nM]
425,725,537,216,727,,,,"C[C@@H](NS(=O)(=O)c1ccccc1)C(=O)NC1=NN=C(c2ccc(F)cc2)CS1 [Example 14, (2R)-N-[5-(4-Fluorophenyl)-6H-1,3,4-thiadiazin-2-yl]-2-[(phenylsulfonyl)amino]-propanamide]",
412,663,2310,1400,1120,,,,"COc1ccc(C2=NN=C(NC(=O)[C@H](C)NS(=O)(=O)c3ccccc3)SC2)cc1 [Example 12, (2S)-N-[5-(4-Methoxyphenyl)-6H-1,3,4-thiadiazin-2-yl]-2-[(phenylsulfonyl)-amino]propanamide]",
380,,,,,40,34,52,"O=C(CC1NC(=O)NC1=O)NC1=NN=C(c2ccc(Cl)cc2)CS1 (stereo not shown) [Example 23, N-[5-(4-Chlorophenyl)-6H-1,3,4-thiadiazin-2-yl]-2-(2,5-dioxo-4-imidazolidinyl)-acetamide]",
342,294,449,552,556,,,,"C[C@H](NS(=O)(=O)c1ccccc1)C(=O)NC1=NN=C(c2ccc([N+](=O)[O-])cc2)CS1 [Example 9, (2S)-N-[5-(4-Nitrophenyl)-6H-1,3,4-thiadiazin-2-yl]-2-[(phenylsulfonyl)amino]-propanamide]",
298,520,853,722,605,,,,"C[C@H](NS(=O)(=O)c1ccccc1)C(=O)NC1=NN=C(c2ccc(Cl)s2)CS1 [Example 10, (2S)-N-[5-(5-Chloro-2-thienyl)-6H-1,3,4-thiadiazin-2-yl]-2-[(phenylsulfonyl)-amino]propanamide]",
297,,,,1070,45,39,,"O=C(CC1NC(=O)NC1=O)NC1=NN=C(c2ccc(Br)cc2)CS1 (stereo not shown) [Example 24, N-[5-(4-Bromophenyl)-6H-1,3,4-thiadiazin-2-yl]-2-(2,5-dioxo-4-imidazolidinyl)-acetamide]",
259,,605,661,700,,,,"COc1ccc(S(=O)(=O)NCC(=O)NC2=NN=C(c3ccc(Cl)cc3Cl)CS2)cc1 [Example 19, N-[5-(2,4-Dichlorophenyl)-6H-1,3,4-thiadiazin-2-yl]-2-{[(4-methoxyphenyl)-sulfonyl]amino}acetamide]",
217,,,517,1100,,36,,"O=C(CC1NC(=O)NC1=O)NC1=NN=C(c2ccc(N3CCCC3)cc2)CS1 (stereo not shown) [Example 26, 2-(2,5-Dioxo-4-imidazolidinyl)-N-{5-[4-(1-pyrrolidinyl)phenyl]-6H-1,3,4-thiadiazin-2-yl}acetamide]",
